# Measurements reported in US7250304B2, “Functional assay of high-density lipoprotein” (The Regents of the University of California, priority 2000, dated 2007).
# Key:
# HAEC monolayers = experiment: Monocyte adhesion assay; type: cell-based, human; conditions: LDL 250 μg pre-incubated with agent 4 hrs, re-isolated
# Description: In brief, HAEC monolayers, in 48-well tissue culture plates were incubated with the desired LDL or phospholipid for 4 hrs at 37° C. as described (Watson et al. (1995) J. Clin. Invest. 96: 2882-2891). After washing, a suspension of human peripheral blood monocytes was added and incubated for 10 min. The loosely adherent monocytes were then washed away, the monolayers were fixed and the number of adherent monocytes counted in 9 high power microscopic fields.
# Freshly isolated LDL (250 μg) was incubated with pure 13(S)-HPODE (1.0 μg) in 10% LPDS in M 199 for 4 hrs at 37° C. with gentle mixing. LDL was re-isolated by centrifugation and was incubated with monolayers of human aortic endothelial cells. […] The endothelial monolayer was washed after each time point and a monocyte suspension was added, incubated, washed, and the number of adherent monocytes determined.
# Freshly isolated LDL (250 μg) was incubated with 10 units of pure soybean lipoxygenase bound to sepharose beads for 4 hrs at 37° C. with gentle mixing. […] The endothelial monolayer was washed after each time point and monocyte adhesion determined.
# Blood samples were collected from patients referred to the cardiac catheterization laboratory at The Center for Health Sciences at the University of California, Los Angeles. […] The HDL-Ox-PAPC mixture was then added to endothelial monolayers and monocyte binding was determined.
# [1] = test system: human aortic endothelial cells; experiment: Lipid hydroperoxide formation when treated LDL is added to HAEC; type: cell-based; conditions: LDL 250 μg pre-incubated with agent 4 hrs, re-isolated
# Description: Freshly isolated LDL (250 μg) was incubated with pure 13(S)-HPODE (1.0 μg) in 10% LPDS in M 199 for 4 hrs at 37° C. with gentle mixing. LDL was re-isolated by centrifugation and was incubated with monolayers of human aortic endothelial cells. Supernatants were removed at time points ranging from zero to 5 hours and were assayed for lipid hydroperoxide content. The endothelial monolayer was washed after each time point and a monocyte suspension was added, incubated, washed, and the number of adherent monocytes determined.
# Freshly isolated LDL (250 μg) was incubated with 10 units of pure soybean lipoxygenase bound to sepharose beads for 4 hrs at 37° C. with gentle mixing. LDL was re-isolated by centrifugation and incubated with monolayers of HAEC. Supernatants were removed at time points ranging from zero to 4 hours and were assayed for lipid hydroperoxide content. The endothelial monolayer was washed after each time point and monocyte adhesion determined.
# (§1) Statistical significance was determined by model 1 ANOVA. […] Significance is defined as p<0.05.
# [2] = Non-enzymatic oxidation of PAPC to POVPC, PGPC, PEIPC (ESI-MS); conditions: for amount that significantly decreased PAPC and increased the three oxidized phospholipids: added to 10 μg of PAPC for 8 hours
# [3] = Non-enzymatic formation of cholesteryl linoleate hydroperoxide (RP-HPLC); conditions: 0.5 μg/ml with cholesteryl linoleate 10 μg/ml, air oxidation 6 hrs
# Description: […] 0.5 μg/ml (Panel A) or cholesteryl linoleate 10 μg/ml (Panel B) or cholesteryl linoleate 10 μg/ml together with 13(S) HPODE 0.5 μg/ml (Panel C) in chloroform/methanol (2:1, v/v) containing 0.01% BHT was briefly swirled to mix and evaporated to dryness under argon and allowed to undergo air oxidation in a laminar flow hood for 6 hrs. The lipids were solubilized in 50 μl of chloroform and analyzed for the presence of cholesteryl linoleate hydroperoxide (Ch18:2-OOH) by RP-HPLC as described herein.
# Fast performance liquid chromatography (FPLC) and reverse phase high performance liquid chromatography ([…]) were performed as described in example 1. For the detection of cholesteryl linoleate hydroperoxide an Alltech Alltima 250×4.6 mm, 5 micron RP-HPLC C18 column was used to separate and detect cholesteryl linoleate hydroperoxide at 234 nm and cholesteryl linoleate at 205 nm. The mobile solvent consisted of acetonitrile/2-propanol/water (44:54:2, v/v/v) at 1.0 ml/min. Lipids were resuspended in the mobile solvent for injection.
# [4] = test system: human artery wall cell cocultures; experiment: LDL oxidation by human artery wall cell cocultures (lipid hydroperoxides); type: cell-based; conditions: for reduction in lipid hydroperoxide levels: cocultures preincubated with inhibitor 1×10^−8 mol/L before addition of LDL 250 μg/ml, 8 hrs; for oxidation of LDL by fatty acid pretreated artery wall cells: cocultures 18 hours with 100 μM fatty acid, washed, then LDL 250 μg/ml; for ability of pretreated artery wall cocultures to oxidize LDL: cocultures incubated 8 hrs with agent, agent removed before LDL 250 μg/ml
# Description: (§2) The wells of the microtiter plates were treated with 0.1% gelatin at 37° C. overnight. HASMC were added at a confluent density of 1×10^5 cells/cm^2. Cells were cultured for 2 d at which time they had covered the entire surface of the well and had produced a substantial amount of extracellular matrix. HAEC were subsequently added at 2×10^5 cells/cm^2 and were allowed to grow forming a complete monolayer of confluent HAEC in 2 d. In all experiments, HAEC and autologous HASMC (from the same donor) were used at passage levels of four to six.
# (§3) In general, the cocultures were treated with native LDL (250 μg/ml) in the absence or presence of HDL for 8 h. The supernatants were collected and used for determination of lipid hydroperoxide levels. The cocultures were subsequently washed and fresh culture medium 199 (M199) without any additions was added and incubated for an additional 8 hrs. This allowed the collection of monocyte chemotactic activity released by the cells as a result of stimulation by the oxidized LDL. At the end of incubation, the supernatants were collected from cocultures, diluted 40-fold, and assayed for monocyte chemotactic activity. Briefly, the supernatant was added to a standard Neuroprobe chamber (NeuroProbe, Cabin John, Md.), with monocytes added to the top. The chamber was incubated for 60 min at 37° C. After the incubation, the chamber was disassembled and the nonmigrated monocytes were wiped off. The membrane was then air dried and fixed with 1% glutaraldehyde and stained with 0.1% Crystal Violet dye. The number of migrated monocytes was determined microscopically and expressed as the mean±SD of 12 standardized high power fields counted in quadruple wells.
# as §1
# Human artery wall cocultures were preincubated with ETYA at a concentration of 10^−8 mol/L or with cinnamyl-3,4-dihydroxy-α-cyanocynamate (CDC, from Biomol) at a concentration of 10^−8 mol/L in M199 containing 10% LPDS for 30 min. The cocultures were then washed and LDL was added at 250 μg/ml and incubated for 8 hrs.
# [5] = test system: human artery wall cell cocultures; experiment: Monocyte chemotaxis assay on coculture conditioned medium; type: cell-based; conditions: for decrease in LDL-induced monocyte chemotactic activity: cocultures preincubated with inhibitor 1×10^−8 mol/L before addition of LDL 250 μg/ml; for LDL-induced monocyte chemotaxis in fatty acid pretreated cocultures: cocultures 18 hours with 100 μM fatty acid, washed, then LDL; for LDL-induced monocyte chemotaxis in pretreated cocultures: cocultures incubated 8 hrs with agent, agent removed before LDL
# Description: as §2
# Monocytes were isolated using a modification of the Recalde method as previously described (Fogelman et al. (1988) J. Lipid Res. 29: 1243-1247) from the blood of normal volunteers after obtaining written consent under a protocol approved by the human research subject protection committee of the University of California, Los Angeles.
# as §3
# [6] = test system: human artery wall cell cocultures; experiment: Hydroperoxide content of apo A-I lipid extract from fatty acid treated cocultures; type: cell-based; conditions: cocultures with or without C18:2, then apo A-I 100 μg/ml 3 hrs
# Description: The medium was removed and the cultures washed three times. Fresh medium without fatty acids was added and the cultures were incubated at 37° C. for an additional 3 hrs. […] at 250 μg/ml was then added to one set of the cocultures in M199 containing 10% LPDS and incubated for 8 hrs. The medium was then removed and lipid hydroperoxides (Panel A) and monocyte chemotactic activity (Panel B) determined. To the second set of cocultures (Panel C) apo A-I was added at 100 μg/ml and incubated for three more hours with gentle mixing at 37° C. […] Values are mean±SD of triplicate determinations. The asterisks denote p<0.001. […] (1991) Drug Metab. Dispos. 19: 100-106). Statistical significance was determined by model 1 ANOVA. […] Significance is defined as p<0.05.
# paraoxonase = conditions: mice, six hours after injection
compound,measurement,setting,value
"CCCCC[C@@H](/C=C/C=C\CCCCCCCC(=O)O)OO [13(S)-HPODE, 13(S)-hydroperoxyoctadecadienoic acid]",monocyte adherence to HAEC induced by treated LDL,HAEC monolayers,increased monocyte adherence to HAEC
same,formation of lipid hydroperoxides when treated LDL added to HAEC,[1],increased the formation of lipid hydroperoxides
same,ability to oxidize PAPC on a molar basis relative to hydrogen peroxide,[2],more than two orders of magnitude greater
same,"formation of POVPC, PGPC, PEIPC from PAPC as a function of time","[2]; 1.0 μg added to 10 μg PAPC, air oxidation",enhanced the formation of the three biologically active oxidized phospholipids at each time point sampled
same,amount that significantly decreased PAPC and increased the three oxidized phospholipids,[2],0.5 µg
same,non-enzymatic formation of cholesteryl linoleate hydroperoxide (Ch18:2-OOH),[3],markedly stimulated the non-enzymatic formation of cholesteryl linoleate hydroperoxide
"CCCCC[C@@H](/C=C/C=C\C/C=C\C/C=C\CCCC(=O)O)OO [15(S)-HPETE, 15(S)-hydroperoxyeicosatetraenoic acid]",ability to oxidize PAPC on a molar basis relative to hydrogen peroxide,[2],more than two orders of magnitude greater
same,amount that significantly decreased PAPC and increased the three oxidized phospholipids,[2],0.5 µg
"N#CC(=Cc1ccc(O)c(O)c1)C(=O)OCC=Cc1ccccc1 [CDC, cinnamyl-3,4-dihydroxy-α-cyanocynamate]",reduction in lipid hydroperoxide levels,[4],73±6%
same,decrease in LDL-induced monocyte chemotactic activity,[5],74±11%
"CCCCCC#CCC#CCC#CCC#CCCCC(=O)O [ETYA, 5,8,11,14-eicosatetraynoic acid]",reduction in lipid hydroperoxide levels,[4],80±7%
same,decrease in LDL-induced monocyte chemotactic activity,[5],75±10%
CCCCC/C=C\C/C=C\C/C=C\C/C=C\CCCC(=O)O [arachidonic acid],oxidation of LDL by fatty acid pretreated artery wall cells,[4],even more potent than linoleic acid
OO [hydrogen peroxide],effect on relative abundance of PAPC and formation of oxidized phospholipids,"[2]; 2 mM and 4 mM, 10 μg PAPC, 8 hours",had no effect
same,effect on relative abundance of PAPC,[2]; 8 mM added to 10 μg PAPC for 8 hours,dramatically decreased the relative abundance of PAPC
CCCCC/C=C\C/C=C\CCCCCCCC(=O)O [linoleic acid],oxidation of LDL by fatty acid pretreated artery wall cells,[4],stimulates the oxidation of LDL by artery wall cells
same,LDL-induced monocyte chemotaxis in fatty acid pretreated cocultures,[5],stimulates LDL-induced monocyte chemotaxis
same,13-HPODE equivalents in the lipid extract of apo A-I,[6],dramatically increased the 13-HPODE equivalents
CCCCCCCC/C=C\CCCCCCCC(=O)O [oleic acid],oxidation of LDL by fatty acid pretreated artery wall cells,[4],not
same,LDL-induced monocyte chemotaxis in fatty acid pretreated cocultures,[5],not
DWL KAF YDK VAE KLK EAF PDW LKA FYD KVA EKL KEA F (DWLKAFYDKVAEKLKEAFPDWLKAFYDKVAEKLKEAF; Synthetic apo A-I peptide mimetic) [37 pA],ability of pretreated artery wall cocultures to oxidize LDL,[4],unable to oxidize the added LDL
same,LDL-induced monocyte chemotaxis in pretreated cocultures,[5],did not induce monocyte chemotaxis
same,LDL-induced monocyte chemotactic activity of LDL pre-incubated with the agent,"[5]; human LDL incubated with agent, re-isolated, then cocultures",did not induce monocyte chemotactic activity
apo A-II: Human apo A-II obtained from Sigma,ability of pretreated artery wall cocultures to oxidize LDL,[4],retained their ability to oxidize LDL
same,LDL-induced monocyte chemotaxis in pretreated cocultures,[5],induce monocyte chemotaxis
same,"PON activity in plasma and HDL, increase",paraoxonase,did not change
